From US20250222146A1, “Radiopharmaceuticals Targeting Somatostatin Receptor 2 and Uses Thereof” (RayzeBio, Inc., priority 2023, published 2025)
Numbered stars: 1 amine (or outer) side, 2 acyl side, 3 side chain; on linkers, the order of the positions; unused ones are H or OH. Square brackets hold non-standard residues; d marks the D form. Peptide text beside a SMILES is read from it. * marks the point of attachment. DOTA(Lu)NH(CH2)6NHCOCH2 = O=C(CN1CCN2CCN3CCN(CC1)CC(=O)[O][Lu]([O]C(=O)C2)[O]C(=O)C3)NCCCCCCNC(=O)C*; X6 = O=C(CN1CCN2CCN3CCN(CC1)CC(=O)[O][Lu]([O]C(=O)C2)[O]C(=O)C3)NCCOCCOCCOCCNC(=O)C*; X17 = O=C(CN1CCN2CCN3CCN(CC1)CC(=O)[O][Lu]([O]C(=O)C2)[O]C(=O)C3)NCCNC(=O)C*; DOTA(Lu) = O=C1CN2CCN3CCN(CC(=O)*)CCN(CC2)CC(=O)[O][Lu]([O]1)[O]C(=O)C3; Ala(piperidin-4-yl) = O=C([C@H](CC1CCN([*:3])CC1)N[*:1])[*:2]; dTrp(βS-Me) = C[C@@H](c1c[nH]c2ccccc12)[C@@H](N)C(=O)O; βMeTrp(2S,3R) = C[C@H](c1c[nH]c2ccccc12)[C@H](N)C(=O)O; dTrp(4-Me) = Cc1cccc2[nH]cc(C[C@@H](N)C(=O)O)c12; dTrp(5-Cl) = N[C@H](Cc1c[nH]c2ccc(Cl)cc12)C(=O)O; dTrp(5-Me) = Cc1ccc2[nH]cc(C[C@@H](N)C(=O)O)c2c1; X19 = O=C([C@H](Cc1c[nH]c2ccncc12)N[*:1])[*:2]; Phe(4-CH2NH2) = NCc1ccc(C[C@H](N)C(=O)O)cc1; Lys(iPr) = CC(C)NCCCC[C@H](N)C(=O)O; mTyr = N[C@@H](Cc1cccc(O)c1)C(=O)O; NMehCys = CN[C@@H](CCS)C(=O)O; NMeK = CN[C@@H](CCCCN)C(=O)O; Ethyl(2-NH2) = NCC*

molecular target: SSTR2 (Homo sapiens, UniProt P30874); experiment: SSTR binding affinity by radioligand binding competition assay ([125I]-Tyr11-Somatostatin, membrane extracts); conditions: SSTR2 Ki, radioligand competition, [125I]-Tyr11-Somatostatin 0.1 nM, membrane extracts; Ki from IC50 by Cheng Prusoff
Sequence (P30874 whole entry): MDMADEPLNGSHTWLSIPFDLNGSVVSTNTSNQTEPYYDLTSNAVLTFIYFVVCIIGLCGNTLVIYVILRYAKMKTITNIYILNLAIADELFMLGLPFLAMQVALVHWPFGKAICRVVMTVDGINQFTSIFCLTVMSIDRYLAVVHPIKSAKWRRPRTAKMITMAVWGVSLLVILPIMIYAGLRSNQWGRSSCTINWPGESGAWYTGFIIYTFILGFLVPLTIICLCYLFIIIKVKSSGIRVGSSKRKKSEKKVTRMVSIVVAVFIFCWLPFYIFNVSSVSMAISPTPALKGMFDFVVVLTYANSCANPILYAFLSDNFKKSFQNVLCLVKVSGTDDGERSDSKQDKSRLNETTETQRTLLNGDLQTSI

C[C@@H](O)[C@@H]1NC(=O)[C@H](CCCCN)NC(=O)[C@H](Cc2c[nH]c3ccccc23)NC(=O)[C@H](Cc2ccc(O)cc2)NC(=O)[C@H](CCSCC(=O)NCCCCCCNC(=O)CN2CCN3CCN4CCN(CC2)CC(=O)[O][Lu]([O]C(=O)C3)[O]C(=O)C4)N(C)C(=O)[C@H](Cc2ccccc2)NC1=O [RB-0005858] and C[C@@H](O)[C@@H]1NC(=O)[C@H](CCCCN)NC(=O)[C@@H](Cc2c[nH]c3ccccc23)NC(=O)[C@H](Cc2ccc(O)cc2)NC(=O)[C@@H](CCSCC(=O)NCCCCCCNC(=O)CN2CCN3CCN4CCN(CC2)CC(=O)[O][Lu]([O]C(=O)C3)[O]C(=O)C4)N(C)C(=O)[C@H](Cc2ccccc2)NC1=O [RB-0005866] fall in the same range of Ki: 1 to 3.33 nM for the first, 1 to 3.33 nM for the second.

With C[C@@H](O)[C@@H]1NC(=O)[C@H](CCCCN)NC(=O)[C@H](Cc2c[nH]c3ccccc23)NC(=O)[C@H](Cc2ccc(O)cc2)NC(=O)[C@H](CCSCC(=O)NCCCCCCNC(=O)CN2CCN3CCN4CCN(CC2)CC(=O)[O][Lu]([O]C(=O)C3)[O]C(=O)C4)N(C)C(=O)[C@H](Cc2ccccc2)NC1=O [RB-0005905] the Ki was < 1 nM.
With C[C@@H](O)[C@@H]1NC(=O)[C@H](CCCCN)NC(=O)[C@H](Cc2c[nH]c3ccccc23)NC(=O)[C@H](Cc2ccc(O)cc2)NC(=O)[C@H](CCSCC(=O)NCCCCCCNC(=O)CN2CCN3CCN4CCN(CC2)CC(=O)[O][Lu]([O]C(=O)C3)[O]C(=O)C4)N(C)C(=O)[C@H](Cc2ccccc2)NC1=O [RB-0005907] the Ki was 3.33 to 10 nM.

same assay, conditions: radioligand competition, [125I]-Tyr11-Somatostatin 0.1 nM, membrane extracts; Ki from IC50 by Cheng Prusoff; read-out: SSTR2 Ki

First: C[C@@H](O)[C@@H]1NC(=O)[C@H](CCCCN)NC(=O)[C@@H](Cc2c[nH]c3ccccc23)NC(=O)[C@H](Cc2ccc(O)cc2)NC(=O)[C@H](CC2CCN(C(=O)CCCCCNC(=O)CN3CCN4CCN5CCN(CC3)CC(=O)[O][Lu]([O]C(=O)C4)[O]C(=O)C5)CC2)N(C)C(=O)[C@H](Cc2ccccc2)NC1=O [RB-0005854]
Second: C[C@@H](O)[C@@H]1NC(=O)[C@H](CCCCN)NC(=O)[C@@H](Cc2c[nH]c3ccccc23)NC(=O)[C@H](Cc2ccc(O)cc2)NC(=O)[C@H](CC(=O)NCCCCCCNC(=O)CN2CCN3CCN4CCN(CC2)CC(=O)[O][Lu]([O]C(=O)C3)[O]C(=O)C4)N(C)C(=O)[C@H](Cc2ccccc2)NC1=O [RB-0005895]
The Ki of the first is higher: 10 to 33.3 nM for the first, 3.33 to 10 nM for the second. The second binds more tightly here.

First: C[C@@H](O)[C@@H]1NC(=O)[C@H](CCCCN)NC(=O)[C@@H](Cc2c[nH]c3ccccc23)NC(=O)[C@H](Cc2ccc(O)cc2)NC(=O)[C@H](CCSCC(=O)NCCCCCCNC(=O)CN2CCN3CCN4CCN(CC2)CC(=O)[O][Lu]([O]C(=O)C3)[O]C(=O)C4)N(C)C(=O)[C@@H]2CCCN2C1=O [RB-0005864] (cyclo(KTP[NMehCys](DOTA(Lu)NH(CH2)6NHCOCH2)Y[dW]))
Second: C[C@@H](O)[C@@H]1NC(=O)[C@H](CCCCN)NC(=O)[C@H](Cc2c[nH]c3ccncc23)NC(=O)[C@H](Cc2ccc(O)cc2)NC(=O)[C@H](CCSCC(=O)NCCCCCCNC(=O)CN2CCN3CCN4CCN(CC2)CC(=O)[O][Lu]([O]C(=O)C3)[O]C(=O)C4)N(C)C(=O)[C@H](Cc2ccccc2)NC1=O [RB-0005903] (cyclo(F[NMehCys](DOTA(Lu)NH(CH2)6NHCOCH2)Y[X19]KT))
The Ki of the first is higher: 1 to 3.33 nM for the first, < 1 nM for the second.

C[C@@H](O)[C@@H]1NC(=O)[C@H](COCCN)NC(=O)[C@@H](Cc2c[nH]c3ccccc23)NC(=O)[C@H](Cc2ccc(O)cc2)NC(=O)[C@H](CCSCC(=O)NCCCCCCNC(=O)CN2CCN3CCN4CCN(CC2)CC(=O)[O][Lu]([O]C(=O)C3)[O]C(=O)C4)N(C)C(=O)[C@H](Cc2ccccc2)NC1=O [RB-0005899] (cyclo(F[NMehCys](DOTA(Lu)NH(CH2)6NHCOCH2)Y[dW]S(Ethyl(2-NH2))T)) and C[C@H](c1c[nH]c2ccccc12)[C@@H]1NC(=O)[C@H](Cc2ccc(O)cc2)NC(=O)[C@H](CCSCC(=O)NCCCCCCNC(=O)CN2CCN3CCN4CCN(CC2)CC(=O)[O][Lu]([O]C(=O)C3)[O]C(=O)C4)N(C)C(=O)[C@H](Cc2ccccc2)NC(=O)[C@H]([C@@H](C)O)NC(=O)[C@H](CCCCN)NC1=O [RB-0006019] (cyclo(F[NMehCys](DOTA(Lu)NH(CH2)6NHCOCH2)Y[βMeTrp(2S,3R)]KT)) cannot be ordered by Ki: < 1 nM for the first, < 1 nM for the second.

Compared with C[C@@H](O)[C@@H]1NC(=O)[C@H](CC2CCNCC2)NC(=O)[C@@H](Cc2c[nH]c3ccccc23)NC(=O)[C@H](Cc2ccc(O)cc2)NC(=O)[C@H](CCCCNC(=O)CN2CCN3CCN4CCN(CC2)CC(=O)[O][Lu]([O]C(=O)C3)[O]C(=O)C4)N(C)C(=O)[C@H](Cc2ccc(O)cc2)NC1=O [RB-0005983] (cyclo([NMeK](DOTA(Lu))Y[dW][Ala(piperidin-4-yl)]TY)), C[C@@H](O)[C@@H]1NC(=O)[C@H](CC2CCNCC2)NC(=O)[C@@H](Cc2c[nH]c3ccccc23)NC(=O)[C@H](Cc2ccc(O)cc2)NC(=O)[C@H](CCCCNC(=O)CN2CCN3CCN4CCN(CC2)CC(=O)[O][Lu]([O]C(=O)C3)[O]C(=O)C4)N(C)C(=O)[C@H](Cc2cccc(O)c2)NC1=O [RB-0005984] (cyclo([NMeK](DOTA(Lu))Y[dW][Ala(piperidin-4-yl)]T[mTyr])) is lower in Ki: 3.33 to 10 nM for the first, 1 to 3.33 nM for the second.

Compared with C[C@@H](O)[C@@H]1NC(=O)[C@H](CC2CCNCC2)NC(=O)[C@@H]([C@@H](C)c2c[nH]c3ccccc23)NC(=O)[C@H](Cc2ccc(O)cc2)NC(=O)[C@H](CCCCNC(=O)CN2CCN3CCN4CCN(CC2)CC(=O)[O][Lu]([O]C(=O)C3)[O]C(=O)C4)N(C)C(=O)[C@H](Cc2cccc(O)c2)NC1=O [RB-0005985] (cyclo([NMeK](DOTA(Lu))Y[dTrp(βS-Me)][Ala(piperidin-4-yl)]T[mTyr])), C[C@H](c1c[nH]c2ccccc12)[C@@H]1NC(=O)[C@H](Cc2ccc(O)cc2)NC(=O)[C@H](CCCCNC(=O)CN2CCN3CCN4CCN(CC2)CC(=O)[O][Lu]([O]C(=O)C3)[O]C(=O)C4)N(C)C(=O)[C@H](Cc2ccccc2)NC(=O)[C@H]([C@@H](C)O)NC(=O)[C@H](CC2CCNCC2)NC1=O [RB-0006069] (cyclo(F[NMeK](DOTA(Lu))Y[βMeTrp(2S,3R)][Ala(piperidin-4-yl)]T)) is higher in Ki: < 1 nM for the first, 3.33 to 10 nM for the second.

C[C@@H](O)[C@@H]1NC(=O)[C@H](CC2CCNCC2)NC(=O)[C@@H]([C@@H](C)c2c[nH]c3ccccc23)NC(=O)[C@H](Cc2ccc(O)cc2)NC(=O)[C@H](CCSCC(=O)NCCNC(=O)CN2CCN3CCN4CCN(CC2)CC(=O)[O][Lu]([O]C(=O)C3)[O]C(=O)C4)N(C)C(=O)[C@H](Cc2ccccc2)NC1=O [RB-0005990] (cyclo(F[NMehCys](X17)Y[dTrp(βS-Me)][Ala(piperidin-4-yl)]T)) and C[C@@H](O)[C@@H]1NC(=O)[C@H](CC2CCNCC2)NC(=O)[C@@H]([C@@H](C)c2c[nH]c3ccccc23)NC(=O)[C@H](Cc2ccc(O)cc2)NC(=O)[C@H](CCSCC(=O)NCCOCCOCCOCCNC(=O)CN2CCN3CCN4CCN(CC2)CC(=O)[O][Lu]([O]C(=O)C3)[O]C(=O)C4)N(C)C(=O)[C@H](Cc2ccccc2)NC1=O [RB-0005994] (cyclo(F[NMehCys](X6)Y[dTrp(βS-Me)][Ala(piperidin-4-yl)]T)) cannot be ordered by Ki: < 1 nM for the first, < 1 nM for the second.

C[C@@H](O)[C@@H]1NC(=O)[C@H](CC2CCNCC2)NC(=O)[C@H](Cc2c[nH]c3ccccc23)NC(=O)[C@H](Cc2ccc(O)cc2)NC(=O)[C@H](CCSCC(=O)NCCOCCOCCOCCNC(=O)CN2CCN3CCN4CCN(CC2)CC(=O)[O][Lu]([O]C(=O)C3)[O]C(=O)C4)N(C)C(=O)[C@H](Cc2ccccc2)NC1=O [RB-0005992] (cyclo(F[NMehCys](X6)YW[Ala(piperidin-4-yl)]T)) and Cc1cccc2[nH]cc(C[C@H]3NC(=O)[C@H](Cc4ccc(O)cc4)NC(=O)[C@H](CCSCC(=O)NCCCCCCNC(=O)CN4CCN5CCN6CCN(CC4)CC(=O)[O][Lu]([O]C(=O)C5)[O]C(=O)C6)N(C)C(=O)[C@H](Cc4ccccc4)NC(=O)[C@H]([C@@H](C)O)NC(=O)[C@H](CC4CCNCC4)NC3=O)c12 [RB-0006073] (cyclo(F[NMehCys](DOTA(Lu)NH(CH2)6NHCOCH2)Y[dTrp(4-Me)][Ala(piperidin-4-yl)]T)) fall in the same range of Ki: 3.33 to 10 nM for the first, 3.33 to 10 nM for the second.

C[C@@H](O)[C@@H]1NC(=O)[C@H](Cc2ccc(CN)cc2)NC(=O)[C@@H]([C@@H](C)c2c[nH]c3ccccc23)NC(=O)[C@H](Cc2ccc(O)cc2)NC(=O)[C@H](CCSCC(=O)NCCCCCCNC(=O)CN2CCN3CCN4CCN(CC2)CC(=O)[O][Lu]([O]C(=O)C3)[O]C(=O)C4)N(C)C(=O)[C@H](Cc2ccccc2)NC1=O [RB-0006009] (cyclo(F[NMehCys](DOTA(Lu)NH(CH2)6NHCOCH2)Y[dTrp(βS-Me)][Phe(4-CH2NH2)]T)) and CC(C)NCCCC[C@@H]1NC(=O)[C@@H]([C@@H](C)c2c[nH]c3ccccc23)NC(=O)[C@H](Cc2ccc(O)cc2)NC(=O)[C@H](CCSCC(=O)NCCCCCCNC(=O)CN2CCN3CCN4CCN(CC2)CC(=O)[O][Lu]([O]C(=O)C3)[O]C(=O)C4)N(C)C(=O)[C@H](Cc2ccccc2)NC(=O)[C@H]([C@@H](C)O)NC1=O [RB-0006011] (cyclo(F[NMehCys](DOTA(Lu)NH(CH2)6NHCOCH2)Y[dTrp(βS-Me)][Lys(iPr)]T)) fall in the same range of Ki: 1 to 3.33 nM for the first, 1 to 3.33 nM for the second.

First: Cc1ccc2[nH]cc(C[C@H]3NC(=O)[C@H](Cc4ccc(O)cc4)NC(=O)[C@H](CCSCC(=O)NCCCCCCNC(=O)CN4CCN5CCN6CCN(CC4)CC(=O)[O][Lu]([O]C(=O)C5)[O]C(=O)C6)N(C)C(=O)[C@H](Cc4ccccc4)NC(=O)[C@H]([C@@H](C)O)NC(=O)[C@H](CC4CCNCC4)NC3=O)c2c1 [RB-0006074] (cyclo(F[NMehCys](DOTA(Lu)NH(CH2)6NHCOCH2)Y[dTrp(5-Me)][Ala(piperidin-4-yl)]T))
Second: C[C@@H](O)[C@@H]1NC(=O)[C@H](CC2CCNCC2)NC(=O)[C@@H](Cc2c[nH]c3ccc(Cl)cc23)NC(=O)[C@H](Cc2ccc(O)cc2)NC(=O)[C@H](CCSCC(=O)NCCCCCCNC(=O)CN2CCN3CCN4CCN(CC2)CC(=O)[O][Lu]([O]C(=O)C3)[O]C(=O)C4)N(C)C(=O)[C@H](Cc2ccccc2)NC1=O [RB-0006075] (cyclo(F[NMehCys](DOTA(Lu)NH(CH2)6NHCOCH2)Y[dTrp(5-Cl)][Ala(piperidin-4-yl)]T))
The Ki of the first is higher: 3.33 to 10 nM for the first, 1 to 3.33 nM for the second. The second binds more tightly here.
